From US10342796B2, “Acrylanilide derivative, preparation method, and applications thereof in pharmacy” (Ancureall Pharmaceutical (Shanghai) Co., Ltd., priority 2015, dated 2019) come the findings set out here.

Assay in all cases: Growth inhibition GI50 in vitro (CCK8/MTT, 72 h)
Format in all cases: cell-based, human

One assay concerns AU565 (Her2 amp). The settings on record: Homo sapiens, AU565; HER2 positive cell line; range of GI50; read-out: GI50 AU-565.
Assay [1] deals with H460 (EGFR wt, Kras G61H). The settings on record: Homo sapiens, NCI-H460; EGFR wild type cell line; range of GI50; read-out: GI50 H460.
In assay [2] the test system is A431 (EGFR WT, amplification and high expression). The settings on record: Homo sapiens, A-431; EGFR wild type cell line; range of GI50; read-out: GI50 A431.
Another assay has as its system A549 (EGFR WT). The settings on record: Homo sapiens, A549; EGFR wild type cell line; range of GI50; read-out: GI50 A549.
Assay [3] concerns H1299 (EGFR wt, Nras Q61K). The settings on record: Homo sapiens, NCI-H1299; EGFR wild type cell line; range of GI50; read-out: GI50 H1299.
Another assay deals with SK-BR-3 (Her2 amp). The settings on record: Homo sapiens, SK-BR-3; HER2 positive cell line; range of GI50; read-out: GI50 SK-BR-3.
The next assay relates to N87 (HER2 Amp). The settings on record: Homo sapiens; HER2 positive cell line; range of GI50; read-out: GI50 N87.
Assay [4] has as its system PC-9ER (EGFR delE746-A750/T790M). The settings on record: Homo sapiens, PC-9/ER; EGFR mutant cell line; range of GI50; read-out: GI50 PC9ER.
Another assay has as its system HCC827 (EGFR dE746-A750). The settings on record: Homo sapiens, HCC827; EGFR mutant cell line; range of GI50; read-out: GI50 HCC827.
A further assay concerns H1975 (EGFR L858R/T790M). The settings on record: Homo sapiens, NCI-H1975; EGFR mutant cell line; range of GI50; read-out: GI50 H1975.
The test system of another assay is PC-9 (EGFR dE746-A750). The settings on record: Homo sapiens; EGFR mutant cell line; range of GI50; read-out: GI50 PC-9.

Take `C=CC(=O)Nc1cc(Nc2cc(Nc3ccc(F)c(Cl)c3)ncn2)c(OC)cc1N1CCC(N2CCOCC2)CC1` [Compound 143, N-(5-(6-(3-chloro-4-fluoro-phenylamino)-pyrimidin-4-ylamino)-4-methoxyl-2-(4-morpholin-4-yl-piperidin-1-yl)-phenyl)-acrylamide]: the GI50 (commonly the concentration that inhibits growth by half) in the assay on AU565 (Her2 amp) is less than 10 nM; in assay [1] it was more than 1000 nM; in assay [2], 10 to 100 nM; with A549 (EGFR WT), more than 1000 nM; in [3], more than 1000 nM; in the assay on SK-BR-3 (Her2 amp) it was less than 10 nM. In addition, the GI50 (in the assay on N87 (HER2 Amp); in assay [4]; in the assay on HCC827 (EGFR dE746-A750); with H1975 (EGFR L858R/T790M); in the assay with PC-9 (EGFR dE746-A750)) was less than 10 nM in each case.

Turning to `C=CC(=O)Nc1cc(Nc2cc(Nc3ccc(F)c(Cl)c3)ncn2)c(OC)cc1N1CCCN(C)CC1` [Compound 144, N-(5-(6-(3-chloro-4-fluoro-phenylamino)-pyrimidin-4-ylamino)-2-(4-methyl-[1,4]diazepin-1-yl)-4-methoxyl-phenyl)-acrylamide], the GI50 is less than 10 nM with AU565 (Her2 amp); more than 1000 nM in assay [1]; 10 to 100 nM in assay [2]; more than 1000 nM with A549 (EGFR WT); more than 1000 nM in [3]; less than 10 nM with SK-BR-3 (Her2 amp). Also, the GI50 (with N87 (HER2 Amp); in assay [4]; in the assay on HCC827 (EGFR dE746-A750); in the assay on H1975 (EGFR L858R/T790M); in the assay on PC-9 (EGFR dE746-A750)) was less than 10 nM in each case.

For the molecule `C=CC(=O)Nc1cc(Nc2cc(Nc3ccc(F)c(Cl)c3)ncn2)c(OC)cc1N1CCN(C)CC1` [Compound 145, N-(5-(6-(3-chloro-4-fluoro-phenylamino)-pyrimidin-4-ylamino)-4-methoxyl-2-(4-methyl-piperazin-1-yl)-phenyl)-acrylamide], the 50% growth inhibitory concentration (GI50) with AU565 (Her2 amp) is 10 to 100 nM; in [1] it was more than 1000 nM; in assay [2], 10 to 100 nM; with A549 (EGFR WT) it was more than 1000 nM; in [3], more than 1000 nM; in the assay with SK-BR-3 (Her2 amp), 10 to 100 nM. The GI50 in the assay with N87 (HER2 Amp) was less than 10 nM; in [4], less than 10 nM; in the assay with HCC827 (EGFR dE746-A750), less than 10 nM; in the assay on H1975 (EGFR L858R/T790M), 10 to 100 nM; in the assay on PC-9 (EGFR dE746-A750), less than 10 nM.

As for `C=CC(=O)Nc1cc(Nc2cc(Nc3ccc(F)c(Cl)c3)ncn2)c(OC)cc1OCCN(C)C` [Compound 148, N-(5-(6-(3-chloro-4-fluoro-phenylamino)-pyrimidin-4-ylamino)-2-(2-dimethylamino-ethoxyl)-4-methoxyl-phenyl)-acrylamide], the GI50 with AU565 (Her2 amp) is less than 10 nM; in assay [1], more than 1000 nM; in assay [2] it was 10 to 100 nM; with A549 (EGFR WT), more than 1000 nM; in assay [3], more than 1000 nM; in the assay on SK-BR-3 (Her2 amp), less than 10 nM. In addition, the GI50 in the assay with N87 (HER2 Amp) was 10 to 100 nM; in assay [4], less than 10 nM; in the assay on HCC827 (EGFR dE746-A750) it was less than 10 nM; with H1975 (EGFR L858R/T790M) it was less than 10 nM; in the assay with PC-9 (EGFR dE746-A750), less than 10 nM.

`C=CC(=O)Nc1cc(Nc2cc(Nc3ccc(F)c(Cl)c3)ncn2)c(OC)cc1OCCN1CCN(C)CC1` [Compound 150, N-(5-(6-(3-chloro-4-fluoro-phenylamino)-pyrimidin-4-ylamino)-2-(2-(4-methyl-piperazin-lyl)-ethoxyl)-4-methoxyl-phenyl)-acrylamide]: the GI50 with AU565 (Her2 amp) is 10 to 100 nM; in assay [1], more than 1000 nM; in [2], 10 to 100 nM; in the assay with A549 (EGFR WT), more than 1000 nM; in assay [3] it was more than 1000 nM; in the assay on SK-BR-3 (Her2 amp), less than 10 nM. In addition, the concentration for 50% growth inhibition (GI50) was 10 to 100 nM with N87 (HER2 Amp); less than 10 nM in assay [4]; less than 10 nM in the assay on HCC827 (EGFR dE746-A750); less than 10 nM in the assay with H1975 (EGFR L858R/T790M); less than 10 nM with PC-9 (EGFR dE746-A750).

As for `C=CC(=O)Nc1cc(Nc2cc(-c3cn(C)c4ccccc34)ncn2)c(OC)cc1N1CCN(CCN2CCCC2)CC1` [Compound 165, N-(4-methoxyl-5-(6-(1-methyl-1H-indol-3-yl)-pyrimidin-4-ylamino)-2-(4-(2-(pyrrolidin-1-yl)-ethyl)-piperazin-1-yl)-phenyl)-acrylamide], the GI50 was 100 to 1000 nM in the assay on AU565 (Her2 amp); more than 1000 nM in assay [1]; 10 to 100 nM in [2]; more than 1000 nM in the assay with A549 (EGFR WT); more than 1000 nM in assay [3]; 100 to 1000 nM in the assay with SK-BR-3 (Her2 amp). The GI50 was 100 to 1000 nM with N87 (HER2 Amp); 10 to 100 nM in [4]; 10 to 100 nM in the assay with HCC827 (EGFR dE746-A750); 100 to 1000 nM with H1975 (EGFR L858R/T790M); less than 10 nM in the assay with PC-9 (EGFR dE746-A750).

`C=CC(=O)Nc1cc(Nc2cc(-c3cn(C)c4ccccc34)ncn2)c(OC)cc1N(C)CCN1CCCC1` [Compound 178, N-(4-methoxyl-5-(6-(1-methyl-1H-indol-3-yl)-pyrimidin-4-ylamino)-2-(methyl-(2-pyrrolidin-1-yl-ethyl)-amino)-phenyl)-acrylamide]: the GI50 was 100 to 1000 nM in the assay with AU565 (Her2 amp); more than 1000 nM in assay [1]; 100 to 1000 nM in assay [2]; more than 1000 nM in the assay on A549 (EGFR WT); more than 1000 nM in assay [3]; 100 to 1000 nM in the assay with SK-BR-3 (Her2 amp). In addition, the GI50 in the assay on N87 (HER2 Amp) is 10 to 100 nM; in assay [4], 10 to 100 nM; with HCC827 (EGFR dE746-A750), less than 10 nM; with H1975 (EGFR L858R/T790M), 10 to 100 nM; with PC-9 (EGFR dE746-A750) it was less than 10 nM.

As to `C=CC(=O)Nc1cc(Nc2cc(-c3cn(CC)c4ccccc34)ncn2)c(OC)cc1N(C)CCN(C)C` [Compound 181, N-{2-((2-dimethylamino-ethyl)-methylamino)-5-[6-(1-ethyl-1H-indol-3-yl)-pyrimidin-4-ylamino]-4-methoxyl-phenyl}-acrylamide], the GI50 is 10 to 100 nM in the assay on AU565 (Her2 amp); more than 1000 nM in [1]; 100 to 1000 nM in assay [2]; more than 1000 nM in the assay on A549 (EGFR WT); more than 1000 nM in assay [3]; 10 to 100 nM in the assay with SK-BR-3 (Her2 amp). Besides, the GI50 with N87 (HER2 Amp) is 10 to 100 nM; in [4] it was less than 10 nM; in the assay with HCC827 (EGFR dE746-A750), less than 10 nM; in the assay on H1975 (EGFR L858R/T790M) it was 10 to 100 nM; in the assay on PC-9 (EGFR dE746-A750) it was less than 10 nM.

For `C=CC(=O)Nc1cc(Nc2cc(-c3cn(CCC)c4ccccc34)ncn2)c(OC)cc1N(C)CCN(C)C` [Compound 182], the concentration for 50% growth inhibition (GI50) is 10 to 100 nM in the assay with AU565 (Her2 amp); more than 1000 nM in assay [1]; 100 to 1000 nM in assay [2]; more than 1000 nM in the assay on A549 (EGFR WT); more than 1000 nM in assay [3]; 10 to 100 nM in the assay with SK-BR-3 (Her2 amp). Further, the GI50 with N87 (HER2 Amp) was in the range of 100 to 1000 nM; in [4] it was 10 to 100 nM; in the assay on HCC827 (EGFR dE746-A750) it was 10 to 100 nM; in the assay on H1975 (EGFR L858R/T790M), 10 to 100 nM; in the assay on PC-9 (EGFR dE746-A750), 10 to 100 nM.

In the case of `C=CC(=O)Nc1cc(Nc2cc(-c3cn(C)c4cc(F)ccc34)ncn2)c(OC)cc1N(C)CCN(C)C` [Compound 186, N-(4-methoxyl-5-(6-(6-fluoro-1-methyl-1H-indol-3-yl)-pyrimidin-4-ylamino)-2-(2-(dimethylamino-ethyl)-methyl-amino)-phenyl)-acrylamide], the GI50 in the assay on AU565 (Her2 amp) is 10 to 100 nM; in assay [1], more than 1000 nM; in [2], 100 to 1000 nM; in the assay on A549 (EGFR WT), more than 1000 nM; in assay [3], more than 1000 nM; in the assay on SK-BR-3 (Her2 amp), 10 to 100 nM. Also, the GI50 (with N87 (HER2 Amp); in [4]; in the assay with HCC827 (EGFR dE746-A750); in the assay on H1975 (EGFR L858R/T790M); with PC-9 (EGFR dE746-A750)) was 10 to 100 nM each time.

For `C=CC(=O)Nc1cc(Nc2cc(-c3cn(C)c4ccc(F)cc34)ncn2)c(OC)cc1N(C)CCN(C)C` [Compound 188, N-(2-((2-dimethylamino-ethyl)-methylamino)-5-(6-(5-fluoro-1-methyl-1H-indol-3-yl)-pyrimidin-4-ylamino)-4-methoxyl-phenyl)-acrylamide], the GI50 is 10 to 100 nM with AU565 (Her2 amp); more than 1000 nM in [1]; 100 to 1000 nM in assay [2]; more than 1000 nM with A549 (EGFR WT); more than 1000 nM in [3]; less than 10 nM in the assay on SK-BR-3 (Her2 amp). Besides, the concentration for 50% growth inhibition (GI50) in the assay with N87 (HER2 Amp) is 10 to 100 nM; in assay [4], less than 10 nM; in the assay with HCC827 (EGFR dE746-A750), less than 10 nM; with H1975 (EGFR L858R/T790M), 10 to 100 nM; with PC-9 (EGFR dE746-A750) it was less than 10 nM.

For the molecule `C=CC(=O)Nc1cc(Nc2cc(-c3cn(C4CCCC4)c4ccc(F)cc34)ncn2)c(OC)cc1N(C)CCN(C)C` [Compound 193, N-(5-(6-(5-fluoro-1-cyclopentyl-1H-indol-3-yl)-pyrimidin-4-ylamino)-4-methoxyl-2-((2-dimethylamino-ethyl)-methyl-amino)-phenyl)-acrylamide], the GI50 was 100 to 1000 nM in the assay with AU565 (Her2 amp); more than 1000 nM in assay [1]; more than 1000 nM in assay [2]; more than 1000 nM with A549 (EGFR WT); more than 1000 nM in assay [3]; more than 1000 nM in the assay with SK-BR-3 (Her2 amp). Further, the GI50 with N87 (HER2 Amp) was 100 to 1000 nM; in assay [4], 10 to 100 nM; in the assay with HCC827 (EGFR dE746-A750), less than 10 nM; in the assay with H1975 (EGFR L858R/T790M) it was 10 to 100 nM; in the assay on PC-9 (EGFR dE746-A750) it was less than 10 nM.
